Columns and labels:
AibH1H2 [1] = biological target: T1, AibH1H2 (Rhodococcus wratislaviensis, UniProt A0A402C2Q3); test: GC-MS of silylated D-MeSer product; assay type: biochemical; settings: preliminary estimate; O2, ascorbate as reductant, 1 equiv Fe(II) added to Mn-grown enzyme; 20 mM HEPES pH 8.0, 30 °C
T1 construct: gene Rhow_000803; recombinant, E. coli BL21(DE3), pET-Duet-AibH1H2 with GroEL/ES-TF; His6-tagged; (alpha-beta)2 heterotetramer; Mn-grown (MnAibH1H2), Fe(II) added; with 2-aminoisobutyric acid hydroxylase subunit AibH1 (amidohydrolase family protein)
T1 sequence (A0A402C2Q3 entry or part of it): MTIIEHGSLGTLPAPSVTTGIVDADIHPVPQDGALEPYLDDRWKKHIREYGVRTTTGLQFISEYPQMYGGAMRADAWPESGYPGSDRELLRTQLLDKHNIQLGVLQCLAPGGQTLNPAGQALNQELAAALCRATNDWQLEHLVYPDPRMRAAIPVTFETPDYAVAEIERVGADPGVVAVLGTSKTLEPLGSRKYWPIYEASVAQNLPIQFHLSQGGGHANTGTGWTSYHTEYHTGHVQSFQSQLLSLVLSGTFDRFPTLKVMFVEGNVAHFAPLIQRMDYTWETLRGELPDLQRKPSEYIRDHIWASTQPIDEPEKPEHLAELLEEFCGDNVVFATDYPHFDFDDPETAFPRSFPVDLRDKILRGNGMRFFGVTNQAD
T1 sequence (A0A402C2V4 entry or part of it, further chain): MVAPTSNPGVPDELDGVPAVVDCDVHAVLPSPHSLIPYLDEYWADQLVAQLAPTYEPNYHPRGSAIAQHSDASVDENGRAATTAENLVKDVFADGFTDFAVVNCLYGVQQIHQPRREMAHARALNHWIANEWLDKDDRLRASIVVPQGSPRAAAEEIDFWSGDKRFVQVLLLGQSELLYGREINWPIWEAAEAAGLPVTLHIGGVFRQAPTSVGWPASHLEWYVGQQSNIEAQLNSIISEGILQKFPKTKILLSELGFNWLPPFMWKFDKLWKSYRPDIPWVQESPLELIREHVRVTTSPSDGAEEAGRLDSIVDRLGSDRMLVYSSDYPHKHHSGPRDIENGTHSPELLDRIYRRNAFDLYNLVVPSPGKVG

AibH1H2 [2] = biological target: T2, AibH1H2 (Rhodococcus wratislaviensis, UniProt A0A402C2Q3, D342A); test: enzymatic activity assay (GC-MS); assay type: biochemical; settings: diminished activity although all metals are incorporated
T2 construct: gene Rhow_000803; recombinant, E. coli BL21(DE3), pET-Duet-AibH1H2 with GroEL/ES-TF; His6-tagged; (alpha-beta)2 heterotetramer; Mn-grown (MnAibH1H2), Fe(II) added; with 2-aminoisobutyric acid hydroxylase subunit AibH1 (amidohydrolase family protein)
T2 sequence (A0A402C2V4 entry or part of it, stated change not applied): as the sequence (A0A402C2V4 entry or part of it, further chain) above
T2 sequence (A0A402C2Q3 entry or part of it D342A): as the sequence (A0A402C2Q3 entry or part of it) above, with D342A counted along it

- Km (AibH1H2 [1]): > 100 mM
Structure (SMILES): CC(C)(N)C(=O)O [AIB, 2-aminoisobutyric acid]
- enzymatic activity assay (GC-MS) (AibH1H2 [2]): upon substitution to alanine, results in protein with diminished enzymatic activity

— paper PMC10401708, “Enzymatic Hydroxylation of Aliphatic C–H Bonds by a Mn/Fe Cofactor” (Journal of the American Chemical Society, 2023)
